How the values were obtained:
GST-JAK2(808-1132) = molecular target: T1, GST-JAK2(808-1132) (Homo sapiens, UniProt O60674); experiment: JAK2 kinase assay (Caliper mobility shift, LabChip 3000); type: biochemical
T1 construct: GST-JAK2(808-1132); purchased Invitrogen (Carlsbad, USA) #4288
Summary of the method: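 Recombinant GST-JAK2(808-1132) kinase domain with FITC-labelled JAK3tide peptide substrate and ATP; 60 min at 30 °C, EDTA stop. Substrate/product ratio read by microfluidic mobility shift; compounds at 8 final concentrations, 10 to 0.003 μM.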

[1] = system: JAK2-dependent nuclear translocation of STAT5-GFP in U-2 OS osteosarcoma cells; experiment: STAT5 nuclear translocation assay (Cellomics), rhEpo stimulated U-2 OS STAT5-GFP cells; type: cell-based; settings: Homo sapiens, U2OS; STAT5 translocation pathway
Summary of the method: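 U-2 OS cells stably expressing STAT5a-GFP and EpoR pre-treated with compound (final 10 μM to 0.003 μM, 0.1% DMSO) for 30 min at 37° C., then stimulated 1 h with 5 U/ml rhEpo. Nuclear-cytoplasmic GFP differential quantified by automated imaging (≥1000 cells/well, Hoechst nuclear mask). IC50 from % translocation normalized to untreated and DMSO-stimulated controls.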

T1 sequence (O60674 808-1132): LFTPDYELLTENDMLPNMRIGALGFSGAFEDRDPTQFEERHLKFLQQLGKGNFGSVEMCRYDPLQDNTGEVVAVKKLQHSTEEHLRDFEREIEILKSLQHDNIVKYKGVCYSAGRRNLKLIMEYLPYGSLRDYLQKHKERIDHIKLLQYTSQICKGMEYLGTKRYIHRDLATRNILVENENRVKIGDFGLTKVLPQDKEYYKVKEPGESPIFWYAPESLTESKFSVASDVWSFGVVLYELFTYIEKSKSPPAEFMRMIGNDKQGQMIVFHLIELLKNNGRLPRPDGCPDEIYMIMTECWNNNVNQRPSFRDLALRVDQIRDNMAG

| Compound | IC50 (GST-JAK2(808-1132)) | IC50 [1] |
| --- | --- | --- |
| Fc1cc(-n2ccc3cnc(Nc4ccc(CN5CCNCC5)nc4)nc32)cc(F)c1CN1CCOCC1 [Example 486, [7-(3,5-Difluoro-4-morpholin-4-yl methyl-phenyl)-7H-pyrrolo[2,3-d]pyrimidin-2-yl]-(6-piperazin-1-ylmethyl-pyridin-3-yl)-amine] | ≤ 3 nM | 487 nM |
| Cc1cc(Nc2ncc3ccn(-c4cc(F)c(CN5CCOCC5)c(F)c4)c3n2)cnc1N1CCNCC1 [Example 487, [7-(3,5-Difluoro-4-morpholin-4-ylmethyl-phenyl)-7H-pyrrolo[2,3-d]pyrimidin-2-yl]-(5-methyl-6-piperazin-1-yl-pyridin-3-yl)-amine] | ≤ 3 nM | 5.8 nM |
| Cc1cc(Nc2ncc3ccn(-c4cc(F)c(CN5CCOCC5)c(F)c4)c3n2)cnc1N1CCNC(C)(C)C1 [Example 488, [7-(3,5-Difluoro-4-morpholin-4-ylmethyl-phenyl)-7H-pyrrolo[2,3-d]pyrimidin-2-yl]-[6-(dimethyl-piperazin-1-yl)-5-methyl-pyridin-3-yl]-amine] | ≤ 3 nM | 40.5 nM |
| C[C@@H]1CN(c2ncc(Nc3ncc4ccn(-c5cc(F)c(CN6CCOCC6)c(F)c5)c4n3)cc2Cl)C[C@H](C)N1 [Example 489, [5-Chloro-6-(cis-3,5-dimethyl-piperazin-1-yl)-pyridin-3-yl]-[7-(3,5-difluoro-4-morpholin-4-ylmethyl-phenyl)-7H-pyrrolo[2,3-d]pyrimidin-2-yl]-amine] | 0.7 nM | 12 nM |
| C[C@@H]1CN(c2ncc(Nc3ncc4ccn(-c5cc(F)c(CN6CCOCC6)c(F)c5)c4n3)cc2C#N)C[C@H](C)N1 [Example 490, 5-[7-(3,5-Difluoro-4-morpholin-4-ylmethyl-phenyl)-7H-pyrrolo[2,3-d]pyrimidin-2-ylamino]-2-(cis-3,5-dimethyl-piperazin-1-yl)-nicotinonitrile] | 3.4 nM | 14 nM |
| O=C1CN(c2ncc(Nc3ncc4ccn(-c5cc(F)c(CN6CCOCC6)c(F)c5)c4n3)cc2Cl)CCN1 [Example 491, 4-{3-Chloro-5-[7-(3,5-difluoro-4-morpholin-4-ylmethyl-phenyl)-7H-pyrrolo[2,3-d]pyrimidin-2-ylamino]-pyridin-2-yl}-piperazin-2-one] | ≤ 3 nM | 15 nM |
| CC1(C)NCCN(c2ccc(Nc3ncc4ccn(-c5cc(F)c(CN6CCOCC6)c(F)c5)c4n3)cn2)C1=O [Example 492, 1-{5-[7-(3,5-Difluoro-4-morpholin-4-ylmethyl-phenyl)-7H-pyrrolo[2,3-d]pyrimidin-2-ylamino]-pyridin-2-yl}-3,3-dimethyl-piperazin-2-one] | 2.2 nM | 55.5 nM |
| Cc1cc(Nc2ncc3ccn(-c4cc(F)c(CN5CCOCC5)c(F)c4)c3n2)cnc1N1CCNC(C)(C)C1=O [Example 493, 1-{5-[7-(3,5-Difluoro-4-morpholin-4-ylmethyl-phenyl)-7H-pyrrolo[2,3-d]pyrimidin-2-ylamino]-3-methyl-pyridin-2-yl}-3,3-dimethyl-piperazin-2-one] | ≤ 3 nM | 104 nM |
| CN1CCN(Cc2cc(Nc3ncc4ccn(-c5cc(F)c(CN6CCOCC6)c(F)c5)c4n3)ccc2Cl)CC1 [Example 494, [4-Chloro-3-(4-methyl-piperazin-1-yl methyl)-phenyl]-[7-(3,5-difluoro-4-morpholin-4-ylmethyl-phenyl)-7H-pyrrolo[2,3-d]pyrimidin-2-yl]-amine] | ≤ 3 nM | 394 nM |
| Cc1cc(Nc2ncc3ccn(-c4cc(F)c(CN5CCOCC5)c(F)c4)c3n2)cnc1N1CCNCC1=O [Example 495, 1-{5-[7-(3,5-Difluoro-4-morpholin-4-ylmethyl-phenyl)-7H-pyrrolo[2,3-d]pyrimidin-2-ylamino]-3-methyl-pyridin-2-yl}-piperazin-2-one] | ≤ 3 nM | 51 nM |
| C[C@@H]1CN(c2ncc(Nc3ncc4ccn(-c5cc(F)c(CN6CCOCC6)c(F)c5)c4n3)cc2C(F)(F)F)C[C@H](C)N1 [Example 496, [7-(3,5-Difluoro-4-morpholin-4-ylmethyl-phenyl)-7H-pyrrolo[2,3-d]pyrimidin-2-yl]-[6-(cis-3,5-dimethyl-piperazin-1-yl)-5-trifluoromethyl-pyridin-3-yl]-amine] | ≤ 3 nM | 97.2 nM |
| COc1cc(Nc2ncc3ccn(-c4cc(F)c(CN5CCOCC5)c(F)c4)c3n2)cnc1N1C[C@@H](C)N[C@@H](C)C1 [Example 497, [7-(3,5-Difluoro-4-morpholin-4-ylmethyl-phenyl)-7H-pyrrolo[2,3-d]pyrimidin-2-yl]-[6-(cis-3,5-dimethyl-piperazin-1-yl)-5-methoxy-pyridin-3-yl]-amine] | ≤ 3 nM | 7.7 nM |
| O=C1CNCCN1Cc1ccc(Nc2ncc3ccn(-c4cc(F)c(CN5CCOCC5)c(F)c4)c3n2)cc1 [Example 498, 1-{4-[7-(3,5-Difluoro-4-morpholin-4-ylmethyl-phenyl)-7H-pyrrolo[2,3-d]pyrimidin-2-ylamino]-benzyl}-piperazin-2-one] | ≤ 3 nM | 83 nM |
| C[C@@H]1CN(c2ccc(Nc3ncc4ccn(-c5ccc(C(=O)N6CCOCC6)c(F)c5)c4n3)cn2)C[C@H](C)N1 [Example 499, (4-{2-[6-(cis-3,5-Dimethyl-piperazin-1-yl)-pyridin-3-ylamino]-pyrrolo[2,3-d]pyrimidin-7-yl}-2-fluoro-phenyl)-morpholin-4-yl-methanone] | 4.8 nM | 220 nM |
| O=C1CN(c2cc(Nc3ncc4ccn(-c5cc(F)c(CN6CCOCC6)c(F)c5)c4n3)ccn2)CCN1 [Example 500, 4-{4-[7-(3,5-Difluoro-4-morpholin-4-ylmethyl-phenyl)-7H-pyrrolo[2,3-d]pyrimidin-2-ylamino]-pyridin-2-yl}-piperazin-2-one] | ≤ 3 nM | 16 nM |
| Fc1cc(-n2ccc3cnc(Nc4ccc(C5CCNCC5)nc4)nc32)cc(F)c1CN1CCOCC1 [Example 501, [7-(3,5-Difluoro-4-morpholin-4-ylmethyl-phenyl)-7H-pyrrolo[2,3-d]pyrimidin-2-yl]-(1,2′,3′,4′,5′,6′-hexahydro-[2,4′]bipyridinyl-5-yl)-amine] | ≤ 3 nM | 38 nM |
| Fc1cc(-n2ccc3cnc(Nc4cnc(N5CCNCC5)c(Cl)c4)nc32)cc(F)c1CN1CCOCC1 [Example 502, (5-Chloro-6-piperazin-1-yl-pyridin-3-yl)-[7-(3,5-difluoro-4-morpholin-4-ylmethyl-phenyl)-7H-pyrrolo[2,3-d]pyrimidin-2-yl]-amine] | ≤ 3 nM | 17 nM |
| CN1CCN(c2cc(Nc3ncc4ccn(-c5cc(F)c(CN6CCOCC6)c(F)c5)c4n3)ccn2)CC1=O [Example 504, 4-{4-[7-(3,5-Difluoro-4-morpholin-4-ylmethyl-phenyl)-7H-pyrrolo[2,3-d]pyrimidin-2-ylamino]-pyridin-2-yl}-1-methyl-piperazin-2-one] | ≤ 3 nM | 81.5 nM |
| CN1CCN(Cc2ccc(Nc3ncc4ccn(-c5cc(F)c(CN6CCOCC6)c(F)c5)c4n3)cn2)CC1=O [Example 505, 4-{5-[7-(3,5-Difluoro-4-morpholin-4-methyl-phenyl)-7H-pyrrolo[2,3-d]pyrimidin-2-ylamino]-pyridin-2-ylmethyl}-1-methyl-piperazin-2-one] | 4.1 nM | 60 nM |
| Fc1cc(-n2ccc3cnc(Nc4cccc([C@H]5COCCN5)c4)nc32)cc(F)c1CN1CCOCC1 [Example 507, [7-(3,5-Difluoro-4-morpholin-4-ylmethyl-phenyl)-7H-pyrrolo[2,3-d]pyrimidin-2-yl]-((S)-3-morpholin-3-yl-phenyl)-amine] | < 3 nM | 0.2 nM |
| CCN1CCOC[C@@H]1c1ccc(Nc2ncc3ccn(-c4cc(F)c(CN5CCOCC5)c(F)c4)c3n2)cc1 [Example 508, [7-(3,5-Difluoro-4-morpholin-4-ylmethyl-phenyl)-7H-pyrrolo[2,3-d]pyrimidin-2-yl]-[4-((S)-4-ethyl-morpholin-3-yl)-phenyl]-amine] | 4.1 nM | 14.8 nM |
| CN1CCOC[C@@H]1c1ccc(Nc2ncc3ccn(-c4cc(F)c(CN5CCOCC5)c(F)c4)c3n2)cc1 [Example 509, [7-(3,5-Difluoro-4-morpholin-4-ylmethyl-phenyl)-7H-pyrrolo[2,3-d]pyrimidin-2-yl]-[4-((S)-4-methyl-morpholin-3-yl)-phenyl]-amine] | < 3 nM | 43.1 nM |
| Cc1cc(Nc2ncc3ccn(-c4cc(F)c(CN5CCOCC5)c(F)c4)c3n2)cnc1N1C[C@@H](C)N[C@@H](C)C1 [Example 510, [7-(3,5-Difluoro-4-morpholin-4-ylmethyl-phenyl)-7H-pyrrolo[2,3-d]pyrimidin-2-yl]-[6-(cis-3,5-dimethyl-piperazin-1-yl)-5-methyl-pyridin-3-yl]-amine] | ≤ 3 nM | 1 nM |
| Fc1cc(-n2ccc3cnc(Nc4ccc([C@H]5COCCN5)cc4)nc32)cc(F)c1CN1CCOCC1 [Example 511, [7-(3,5-Difluoro-4-morpholin-4-ylmethyl-phenyl)-7H-pyrrolo[2,3-d]pyrimidin-2-yl]-((S)-4-morpholin-3-yl-phenyl)-amine] | ≤ 3 nM | 3.9 nM |
| Cc1cc(Nc2ncc3ccn(-c4cc(F)c(CN5CCOCC5)c(F)c4)c3n2)cnc1N1CCNCC(F)(F)C1 [Example 512, [6-(6,6-Difluoro-[1,4]diazepan-1-yl)-5-methyl-pyridin-3-yl]-[7-(3,5-difluoro-4-morpholin-4-ylmethyl-phenyl)-7H-pyrrolo[2,3-d]pyrimidin-2-yl]-amine] | ≤ 3 nM | 14 nM |
